Results taken from PubChem BioAssay (NCI).
Several values for one entry are separate records, joined by “and”; a condition that tells them apart may be missing. Equal values may be shown once.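 Growth conditions: 96-well plates. Treatment: test compound, 48 hours, 5 concentrations. Analysis: linear interpolation between bracketing concentrations; unreached endpoints set to highest concentration. Abbreviation: GI50, concentration required for 50% inhibition of growth. TGI is the concentration that stops growth completely.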

These molecules were tested on KM12 colon (assay: NCI-60 cell line screen, 48 h).
Work on `COc1ccc2c(c1)C=C([N+](=O)[O-])C(C1OC(C)(C)OC1C1COC(C)(C)O1)O2` (centres undefined) yielded a TGI of 4.31 µM. In the case of `CC(C)(C)OC(=O)Cc1ccc2c(ccn2Cc2ccccc2)c1`, the TGI is reported as greater than 100 µM. With `NC(N)=NCCCn1c2c(c3ccccc3c1=O)C(=O)c1ccccc1-2` the GI50 was 21.9 µM and the TGI was 59.1 µM. In the case of `CCC1(O)C(=O)OCc2c1cc1n(c2=O)Cc2cc3ccc(C=O)cc3nc2-1` (centres undefined), the GI50 is reported as 4.83 µM and the TGI is reported as 29.7 µM and > 100 µM. `CC(C)N(C(=O)C12CC3CC(CC(C3)C1)C2)C(C)C` gave a TGI greater than 50 µM. `CC1(C)C2CC(O)C1(C)CC2=O` (centres undefined) gave a TGI greater than 100 µM. `COc1ccc2c(c1)C(=O)c1c-2n(CCCn2ccnc2)c(=O)c2ccccc12` was tested, and the GI50 was 0.729 µM and the TGI was 3.78 µM. `COc1cc2oc(-c3ccc(O)cc3)cc(=O)c2c(OC)c1OC` gave a TGI greater than 100 µM. For `N#Cc1nc(C2OC(COC(=O)c3ccccc3)C(OC(=O)c3ccccc3)C2OC(=O)c2ccccc2)oc1N` (centres undefined), the TGI was greater than 100 µM. `CC/C=C\C[C@@H]1C/C=C2/C(=O)C=C[C@H]2C/C=C\CCCC(=O)O1` showed a GI50 of 0.262 µM and a TGI of 0.767 µM. `Cc1ccc(S(=O)(=O)n2c(-c3ccccc3)c(-c3ccccc3)c3ccccc32)cc1` was tested, and the TGI was greater than 100 µM. Work on `O=C(N/N=C/c1cccc(O)c1O)c1ccccc1` yielded a GI50 of 0.769 µM and a TGI greater than 100 µM. Molecule `CN/N=C(/CCN1CCCC1)CC(c1ccccc1)c1c(O)c2ccccc2oc1=O` (centres undefined) has a TGI greater than 100 µM. For `COc1ccc2c(c1)CCC1C3(CCCC21C)OCCO3` (centres undefined), the TGI was 51.7 µM. With `COc1ccc(OC)c(/C=C/C(=O)N/N=C/c2ccc(Cl)cc2)c1` the GI50 was 0.0466 µM and the TGI was greater than 29.1 µM. For `COc1ccc(C(=O)c2cc(C)c(OC)c(C)c2)c(OC)c1N(C(=O)C(Cl)Cl)C(=O)C(Cl)Cl`, the GI50 was 0.0461 µM. For `Cc1ccc(N(C(=O)CC(=O)NN)C(=O)c2ccccc2Cl)cc1`, the TGI was greater than 100 µM. Molecule `CCN(CC)c1sc(N(CC)CC)c2c1SSSSS2` has a GI50 of 1.68 µM and a TGI of 3.55 µM. In the case of `O=C(c1cccc(O)c1O)c1cn(Cc2ccc(F)cc2)c2cccc(O)c12`, the GI50 is reported as 5.46 µM and the TGI is reported as 19.4 µM. Work on `Nc1ncc(-c2cnn(CCO)c2)c2scc(-c3ccc(NC(=O)Nc4cccc(F)c4)cc3)c12` yielded a GI50 of 0.0103 µM and a TGI of 1.19 µM. In the case of `COc1cc(C2=NN(C(C)=O)C(c3ccc(OC(C)=O)cc3OC(C)=O)O2)c(OC(C)=O)c2ccccc12` (centres undefined), the GI50 is reported as 1.02 µM and the TGI is reported as 27.3 µM. Work on `COc1cc(OC(=O)c2c(O)cc(O)c(O)c2C)cc(C)c1C(=O)Oc1cc(C)c(C(=O)O)c(O)c1` yielded a TGI greater than 100 µM. Work on `COC(=O)Nc1nc2ccc(Oc3ccc(NC(=O)Nc4ccccc4)cc3)cc2[nH]1` yielded a GI50 of 0.106 µM and a TGI of 4.87 µM. `CN(C)P(=O)(/C(N)=N/Nc1ccc([N+](=O)[O-])cc1)N(C)C` gave a TGI greater than 100 µM. `CC(=O)OC1CC(O)C23COC(O)C1(C)C2CC(O)C1(C)C3C(=O)C(O)C2(C)C(c3ccoc3)CC3OC321` (centres undefined) showed a GI50 of less than 0.01 µM and a TGI greater than 100 µM. In the case of `Cn1cc(C(=O)c2ccccc2)ccc1=O`, the TGI is reported as greater than 100 µM. In the case of `CCCCCCCC(CC(=O)NC(CO)C(=O)NC(CO)CC(C)C)OC(=O)CC(CCCCCCC)OC(=O)CC(CCCCCCC)OC1OC(C)C(O)C(OC2OC(C)C(O)C(OC(C)=O)C2O)C1O` (centres undefined), the TGI is reported as 22.1 µM. Work on `COc1ccc(C(C)c2cc3c(cc2OC)OCO3)cc1` (centres undefined) yielded a TGI greater than 41 µM. `CCc1[nH]c(=O)nc(N)c1-c1ccc(N2CCCCC2)c([N+](=O)[O-])c1` gave a TGI greater than 100 µM. `CCC#CC[C@H]1C/C=C2/C(=O)C=C[C@@H]2C/C=C\CCCC(=O)O1` showed a GI50 of 0.848 µM and a TGI of 2.16 µM. `CCN(CC)CCN1CC(O)=C(c2nc(-c3ccc(Cl)cc3)cs2)C1=N` showed a GI50 of 2.72 µM and a TGI of 8.09 µM.

The molecules below were run on OVCAR-8 ovarian (assay: NCI-60 cell line screen, 48 h).
`COc1ccc2c(c1)C=C([N+](=O)[O-])C(C1OC(C)(C)OC1C1COC(C)(C)O1)O2` (centres undefined) was tested, and the TGI was 11.4 µM. `CC(C)(C)OC(=O)Cc1ccc2c(ccn2Cc2ccccc2)c1` gave a TGI greater than 100 µM. Work on `NC(N)=NCCCn1c2c(c3ccccc3c1=O)C(=O)c1ccccc1-2` yielded a GI50 of 36 µM and a TGI greater than 100 µM. `CCC1(O)C(=O)OCc2c1cc1n(c2=O)Cc2cc3ccc(C=O)cc3nc2-1` (centres undefined) was tested, and the GI50 was 0.539 µM and the TGI was 8.02 µM and 24.2 µM. For `CC(C)N(C(=O)C12CC3CC(CC(C3)C1)C2)C(C)C`, the TGI was greater than 50 µM. Molecule `CC1(C)C2CC(O)C1(C)CC2=O` (centres undefined) has a TGI greater than 100 µM. For `COc1ccc2c(c1)C(=O)c1c-2n(CCCn2ccnc2)c(=O)c2ccccc12`, the GI50 was 0.602 µM and the TGI was greater than 69.2 µM. For `COc1cc2oc(-c3ccc(O)cc3)cc(=O)c2c(OC)c1OC`, the TGI was greater than 100 µM. Molecule `N#Cc1nc(C2OC(COC(=O)c3ccccc3)C(OC(=O)c3ccccc3)C2OC(=O)c2ccccc2)oc1N` (centres undefined) has a TGI greater than 100 µM. `CC/C=C\C[C@@H]1C/C=C2/C(=O)C=C[C@H]2C/C=C\CCCC(=O)O1` gave a GI50 of 0.342 µM and a TGI of 2.37 µM. `Cc1ccc(S(=O)(=O)n2c(-c3ccccc3)c(-c3ccccc3)c3ccccc32)cc1` showed a TGI greater than 100 µM. Work on `O=C(N/N=C/c1cccc(O)c1O)c1ccccc1` yielded a GI50 of 0.587 µM and a TGI greater than 100 µM. `CN/N=C(/CCN1CCCC1)CC(c1ccccc1)c1c(O)c2ccccc2oc1=O` (centres undefined) was tested, and the TGI was greater than 100 µM. With `COc1ccc2c(c1)CCC1C3(CCCC21C)OCCO3` (centres undefined) the TGI was 50.4 µM. Molecule `COc1ccc(OC)c(/C=C/C(=O)N/N=C/c2ccc(Cl)cc2)c1` has a GI50 of 0.35 µM and a TGI greater than 100 µM. Work on `COc1ccc(C(=O)c2cc(C)c(OC)c(C)c2)c(OC)c1N(C(=O)C(Cl)Cl)C(=O)C(Cl)Cl` yielded a GI50 of 0.0558 µM and a TGI greater than 100 µM. With `Cc1ccc(N(C(=O)CC(=O)NN)C(=O)c2ccccc2Cl)cc1` the TGI was greater than 100 µM. `CCN(CC)c1sc(N(CC)CC)c2c1SSSSS2` was tested, and the GI50 was 2.18 µM and the TGI was 4.7 µM. For `O=C(c1cccc(O)c1O)c1cn(Cc2ccc(F)cc2)c2cccc(O)c12`, the GI50 was 3.56 µM and the TGI was 18.9 µM. `Nc1ncc(-c2cnn(CCO)c2)c2scc(-c3ccc(NC(=O)Nc4cccc(F)c4)cc3)c12` was tested, and the GI50 was 0.253 µM and the TGI was 2.39 µM. In the case of `COc1cc(C2=NN(C(C)=O)C(c3ccc(OC(C)=O)cc3OC(C)=O)O2)c(OC(C)=O)c2ccccc12` (centres undefined), the GI50 is reported as 0.426 µM and the TGI is reported as 33.7 µM. For `COc1cc(OC(=O)c2c(O)cc(O)c(O)c2C)cc(C)c1C(=O)Oc1cc(C)c(C(=O)O)c(O)c1`, the TGI was greater than 100 µM. Molecule `COC(=O)Nc1nc2ccc(Oc3ccc(NC(=O)Nc4ccccc4)cc3)cc2[nH]1` has a GI50 of 0.545 µM and a TGI of 8.04 µM. Work on `CN(C)P(=O)(/C(N)=N/Nc1ccc([N+](=O)[O-])cc1)N(C)C` yielded a TGI greater than 100 µM. In the case of `CC(=O)OC1CC(O)C23COC(O)C1(C)C2CC(O)C1(C)C3C(=O)C(O)C2(C)C(c3ccoc3)CC3OC321` (centres undefined), the GI50 is reported as 0.191 µM. With `Cn1cc(C(=O)c2ccccc2)ccc1=O` the TGI was greater than 100 µM. Work on `CCCCCCCC(CC(=O)NC(CO)C(=O)NC(CO)CC(C)C)OC(=O)CC(CCCCCCC)OC(=O)CC(CCCCCCC)OC1OC(C)C(O)C(OC2OC(C)C(O)C(OC(C)=O)C2O)C1O` (centres undefined) yielded a TGI of 28.3 µM. Molecule `COc1ccc(C(C)c2cc3c(cc2OC)OCO3)cc1` (centres undefined) has a TGI of 17.1 µM. `CCc1[nH]c(=O)nc(N)c1-c1ccc(N2CCCCC2)c([N+](=O)[O-])c1` gave a TGI greater than 100 µM. With `CCC#CC[C@H]1C/C=C2/C(=O)C=C[C@@H]2C/C=C\CCCC(=O)O1` the GI50 was 0.783 µM and the TGI was 9.71 µM. Molecule `CCN(CC)CCN1CC(O)=C(c2nc(-c3ccc(Cl)cc3)cs2)C1=N` has a GI50 of 5.61 µM and a TGI greater than 100 µM.

These molecules were tested on HCC-2998 colon (assay: NCI-60 cell line screen, 48 h).
`COc1ccc2c(c1)C=C([N+](=O)[O-])C(C1OC(C)(C)OC1C1COC(C)(C)O1)O2` (centres undefined) showed a TGI of 27.7 µM. With `CC(C)(C)OC(=O)Cc1ccc2c(ccn2Cc2ccccc2)c1` the TGI was greater than 100 µM. In the case of `NC(N)=NCCCn1c2c(c3ccccc3c1=O)C(=O)c1ccccc1-2`, the GI50 is reported as 3.6 µM and the TGI is reported as 15.8 µM. `CCC1(O)C(=O)OCc2c1cc1n(c2=O)Cc2cc3ccc(C=O)cc3nc2-1` (centres undefined) was tested, and the GI50 was 2.52 µM and the TGI was 10.4 µM and 26.1 µM. Work on `CC(C)N(C(=O)C12CC3CC(CC(C3)C1)C2)C(C)C` yielded a TGI greater than 50 µM. `CC1(C)C2CC(O)C1(C)CC2=O` (centres undefined) showed a TGI greater than 100 µM. In the case of `COc1ccc2c(c1)C(=O)c1c-2n(CCCn2ccnc2)c(=O)c2ccccc12`, the GI50 is reported as 0.72 µM and the TGI is reported as 2.91 µM. With `COc1cc2oc(-c3ccc(O)cc3)cc(=O)c2c(OC)c1OC` the TGI was greater than 100 µM. `N#Cc1nc(C2OC(COC(=O)c3ccccc3)C(OC(=O)c3ccccc3)C2OC(=O)c2ccccc2)oc1N` (centres undefined) showed a TGI greater than 100 µM. Work on `CC/C=C\C[C@@H]1C/C=C2/C(=O)C=C[C@H]2C/C=C\CCCC(=O)O1` yielded a GI50 of 0.259 µM and a TGI of 0.533 µM. With `Cc1ccc(S(=O)(=O)n2c(-c3ccccc3)c(-c3ccccc3)c3ccccc32)cc1` the TGI was greater than 100 µM. With `O=C(N/N=C/c1cccc(O)c1O)c1ccccc1` the GI50 was 3.2 µM and the TGI was greater than 100 µM. Work on `CN/N=C(/CCN1CCCC1)CC(c1ccccc1)c1c(O)c2ccccc2oc1=O` (centres undefined) yielded a TGI greater than 100 µM. Work on `COc1ccc2c(c1)CCC1C3(CCCC21C)OCCO3` (centres undefined) yielded a TGI of 44.3 µM. In the case of `COc1ccc(OC)c(/C=C/C(=O)N/N=C/c2ccc(Cl)cc2)c1`, the GI50 is reported as 0.0831 µM and the TGI is reported as 0.653 µM. In the case of `COc1ccc(C(=O)c2cc(C)c(OC)c(C)c2)c(OC)c1N(C(=O)C(Cl)Cl)C(=O)C(Cl)Cl`, the GI50 is reported as 0.0799 µM and the TGI is reported as greater than 41.2 µM. In the case of `Cc1ccc(N(C(=O)CC(=O)NN)C(=O)c2ccccc2Cl)cc1`, the TGI is reported as greater than 100 µM.
